Measured values: patent EP0121013A1, “Oral compositions” (UNILEVER PLC, priority 1983, dated 1984)

What was measured:
[1] = Ionisation: release of available F; assay type: physicochemical
Text: The corresponding values for Na2SnF6 are 73% and 38%, respectively. Thus Na2SnF6 is less ionised than Sn(NH4)2F6.

[2] = applied topically to the teeth; Caries Res. 3, 315-325, 1969; cited from earlier work
[3] = test system: Lactobacillus casei; assay: Inhibition of bacterial growth (optical density after 24 hours); assay type: cell-based; settings: L.casei; for IC50: 24 hours at 37°C, means of triplicate experiments, read-out: ID/50 (the source's name); for ID/50: recalculated as ppm F, 1440 min
Text: (§1) Cariogenic Bacteria used for testing the effect of Sn(^NH4)2F6 were Streptococcus mutans (strains coded 6715 and OMZ-176), Streptococcus sanguis (strains coded 10556 and 10557), Streptococcus salivarius (strains coded SS4 and H257), and Lactobacillus casei. All of the above organisms were maintained as lyophilised cultures until the time for use.
(§2) It is generally agreed that oral bacteria are responsible for tooth decay. Therefore, a reduction of the cariogenic flora usually results in a decrease in caries formation. The inhibitory action of the test compounds was. determined by adding each salt, at known concentrations, to a culture of cariogenic bacteria. After 24 hours at 37°C bacterial growth was monitored as a change in optical density. A dose response curve (concentration of salt vs. growth) for each compound against each bacterial isolate was plotted in order to obtain the concentration of test agent which would cause a 50% inhibition in growth (ID/50). This is a useful ranking index since it is not always possible to obtain complete inhibition with weak germicidal agents. Only those compounds which were able to elicit an ID/50 response were considered as inhibitory agents.
(§3) The medium used for bacterial growth experiments was Trypticase Soy Broth (B.B.L.: Baltimore Biological Labs., Baltimore, MD) supplemented with 0.1% Tween 80 (the word Tween is a trade mark) and 0.05% sodium thioglycollate. The test organisms, as lyophilised cells, were grown overnight in 50 mls of growth medium in a vacuum desiccator with an atmosphere of 97% CO /3% H2 at 35°C. These cultures were then used at a 0.2% inoculum to prepare second stage seed flasks. The test media (10ml) consisting of growth medium plus the potential inhibitors, contained in 16 x 120 mm screw top test tubes, were inoculated with the second stage seed cultures to given an absorbancy reading of 0.05. Immediately after inoculation the cultures were incubated for 24 hours under anaerobic conditions.
(§4) The growth medium was sterilised by autoclaving, whereas the potential inhibitors (as aqueous solutions) were sterilised by filtering each solution separately through a Millipore membrane (0.22 /u).
(§5) Absorbance at 600 nm versus a medium control was used as a measure of growth on a Beckman Model B spectrophotometer. All absorbancy readings were determined in 16 mm x 120 mm Kimax test tubes. This instrument was linear to 0.60 OD units; thus, all cultures displaying values above this range were diluted with the control, accordingly.

[4] = test system: Streptococcus mutans 6715; assay: as above; assay type: cell-based; settings: S.mutans 6715; recalculated as ppm F; 1440 min
Text: as §1, §2, §3, §4, §5

[5] = test system: Streptococcus mutans OMZ-176; assay: as above; assay type: cell-based; settings: S.mutans OMZ-176; for IC50: 24 hours at 37°C, means of triplicate experiments, read-out: ID/50 (the source's name); for ID/50: recalculated as ppm F, 1440 min
Text: as §1, §2, §3, §4, §5

[6] = test system: Streptococcus salivarius H257; assay: as above; assay type: cell-based; settings: S.salivarius H-257; for IC50: 24 hours at 37°C, means of triplicate experiments, read-out: ID/50 (the source's name); for ID/50: recalculated as ppm F, 1440 min
Text: as §1, §2, §3, §4, §5

[7] = test system: Streptococcus salivarius SS4; assay: as above; assay type: cell-based; settings: S.salivarius SS4; for IC50: 24 hours at 37°C, means of triplicate experiments, read-out: ID/50 (the source's name); for ID/50: recalculated as ppm F, 1440 min
Text: as §1, §2, §3, §4, §5

[8] = test system: Streptococcus sanguis 10556; assay: as above; assay type: cell-based; settings: S.sanguis 10556; for IC50: 24 hours at 37°C, means of triplicate experiments, read-out: ID/50 (the source's name); for ID/50: recalculated as ppm F, 1440 min
Text: as §1, §2, §3, §4, §5

[9] = test system: Streptococcus sanguis 10557; assay: as above; assay type: cell-based; settings: S.sanguis 10557; for IC50: 24 hours at 37°C, means of triplicate experiments, read-out: ID/50 (the source's name); for ID/50: recalculated as ppm F, 1440 min
Text: as §1, §2, §3, §4, §5

[10] = pH of aqueous solution; assay type: physicochemical
Text: An aqueous solution of Sn(NH4)2F6 has a ^pH of about 3.8 as compared to a pH of 3.0 for SnF2. This higher pH characteristic eliminates some of the formulation problems encountered with the strong acid effect of SnF2. The preferred pH of oral compositions containing ^Sn(NH4)2F6 is from 3.5 to 8.0. A 1000 ppm F^- solution of Sn(NH4)2F6 was stable.

[11] = Stability of aqueous solution on standing (haze / turbidity); assay type: physicochemical; settings: 1000 ppm F- solution of Sn(NH4)2F6 on standing several weeks; SnF2 solution after 24 hours at room temperature
[12] = concentration equivalent to 1000 ppm
[13] = concentration equivalent to 2500 ppm

**Q.** With `[F-].[F-].[F-].[F-].[F-].[F-].[Na+].[Na+].[Sn+4]` [Na2SnF6, sodium hexafluorostannate] as the compound, how does the “released available F” value [1, 12] read?
**A.** 73%

**Q.** What about the “released available F” value [1, 13] of the same compound?
**A.** 38%

**Q.** And the caries inhibiting effect [2]?
**A.** has a caries inhibiting effect

**Q.** With `[F][Sn][F]` [SnF2] as the compound, how does the IC50 [3] read?
**A.** 2970 µM

**Q.** What about the ID/50 [3] of the same compound?
**A.** 113 ppm F

**Q.** What about the ID/50 [4] of the same compound?
**A.** 56 ppm F

**Q.** What about the IC50 [5] of the same compound?
**A.** 2280 µM

**Q.** And the ID/50 [5]?
**A.** 87 ppm F

**Q.** What about the IC50 [6] of the same compound?
**A.** 740 µM

**Q.** And the ID/50 [6]?
**A.** 29 ppm F

**Q.** And the IC50 [7]?
**A.** 2450 µM

**Q.** What about the ID/50 [7] of the same compound?
**A.** 93 ppm F

**Q.** And the IC50 [8]?
**A.** 440 µM

**Q.** What about the ID/50 [8] of the same compound?
**A.** 17 ppm F

**Q.** What about the IC50 [9] of the same compound?
**A.** 840 µM

**Q.** And the ID/50 [9]?
**A.** 32 ppm F

**Q.** What about the pH [10] of the same compound?
**A.** 3.0

**Q.** What about the stability of solution [11] of the same compound?
**A.** developed turbidity

**Q.** And the “released available F” value [1, 12]?
**A.** 80%

**Q.** What about the “released available F” value [1, 13] of the same compound?
**A.** 45%

**Q.** With `[Cl][Sn][Cl]` [SnCl2] as the compound, how does the IC50 [3] read?
**A.** 3000 to 6000 µM

**Q.** With `N.N.[F-].[F-].[F-].[F-].[F-].[F-].[Sn]` [Sn(NH4)2F6, stannic ammonium fluoride] as the compound, how does the IC50 [3] read?
**A.** 2530 µM

**Q.** And the ID/50 [3]?
**A.** 288 ppm F

**Q.** What about the ID/50 [4] of the same compound?
**A.** 137 ppm F

**Q.** What about the IC50 [5] of the same compound?
**A.** 1430 µM

**Q.** What about the ID/50 [5] of the same compound?
**A.** 163 ppm F

**Q.** And the IC50 [6]?
**A.** 400 µM

**Q.** What about the ID/50 [6] of the same compound?
**A.** 46 ppm F

**Q.** What about the IC50 [7] of the same compound?
**A.** 1650 µM

**Q.** And the ID/50 [7]?
**A.** 188 ppm F

**Q.** And the IC50 [8]?
**A.** 220 µM

**Q.** What about the ID/50 [8] of the same compound?
**A.** 25 ppm F

**Q.** What about the IC50 [9] of the same compound?
**A.** 390 µM

**Q.** And the ID/50 [9]?
**A.** 45 ppm F

**Q.** What about the pH [10] of the same compound?
**A.** about 3.8

**Q.** And the stability of solution [11]?
**A.** stable

**Q.** And the “released available F” value [1, 12]?
**A.** the same ionisation values as SnF2

**Q.** And the “released available F” value [1, 13]?
**A.** the same ionisation values as SnF2

**Q.** Which results are given for `[F-].[Na+]` [NaF]?
**A.** IC50 [3]: > 12000 µM; ID/50 [3]: 352 ppm F; ID/50 [4]: 138 ppm F; IC50 [5]: 16300 µM; ID/50 [5]: 309 ppm F; IC50 [6]: 3770 µM; ID/50 [6]: 72 ppm F; IC50 [7]: 13400 µM; ID/50 [7]: 255 ppm F; IC50 [8]: 1180 µM; ID/50 [8]: 22 ppm F; IC50 [9]: 1820 µM; ID/50 [9]: 35 ppm F
